SMILES strings stand for the structures.

For the assay, the target named is human GOAT (Homo sapiens (Human), UniProt Q96T53). Kind of assay: Determination of hGOAT Activity in HEK293 Cells after Incubation with Test Compound. Format: cell-based. The conditions noted are these: HEK293 cells stably transfected with preproghrelin and human GOAT; octanoate-BSA 100 μM; acyl-ghrelin in medium by ELISA after 5 hours. The essentials:
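HEK293 cells stably expressing preproghrelin and human GOAT were given serum-free medium with 100 μM octanoate-BSA plus compound (0.3% DMSO) for 5 h. Acyl-ghrelin in the medium was quantified by ELISA (A405, standard curve) as % of vehicle. IC50 was fitted from 8 concentrations.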

Sequence of human GOAT (Q96T53 whole entry): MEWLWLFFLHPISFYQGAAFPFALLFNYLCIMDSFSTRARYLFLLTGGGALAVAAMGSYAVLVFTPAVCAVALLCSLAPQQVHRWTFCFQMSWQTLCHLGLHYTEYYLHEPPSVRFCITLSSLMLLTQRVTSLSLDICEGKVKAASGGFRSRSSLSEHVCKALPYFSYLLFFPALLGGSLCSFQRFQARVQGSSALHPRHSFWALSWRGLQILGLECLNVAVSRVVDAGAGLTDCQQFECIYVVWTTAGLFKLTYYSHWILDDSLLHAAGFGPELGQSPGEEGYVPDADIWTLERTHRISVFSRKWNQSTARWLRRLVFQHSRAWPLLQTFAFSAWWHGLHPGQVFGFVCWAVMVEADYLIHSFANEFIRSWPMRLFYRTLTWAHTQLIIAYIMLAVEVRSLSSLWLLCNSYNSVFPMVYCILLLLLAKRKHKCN

Molecule `Cc1nc2nonc2c(N)c1Cc1ccc(C#N)c(NCC(C)(C)C(N)=O)n1` [Example 148, 3-[6-(7-Amino-5-methyl-[1,2,5]oxadiazolo[3,4-b]pyridin-6-ylmethyl)-3-cyano-pyridin-2-ylamino]-2,2-dimethyl-propionamide] returned a concentration for half-maximal inhibition (IC50) of 150 pM.
The same measure for `Cc1nc2nonc2c(N)c1Cc1cccc(-c2ccco2)n1` [Example 57, 6-(6-Furan-2-yl-pyridin-2-ylmethyl)-5-methyl-[1,2,5]oxadiazolo[3,4-b]pyridin-7-ylamine]: 100 pM.
For the molecule `Cc1nc2nonc2c(N)c1Cc1ccc(OCC(F)(F)F)c(C#N)n1` [Example 114, 6-(7-Amino-5-methyl-[1,2,5]oxadiazolo[3,4-b]pyridin-6-ylmethyl)-3-(2,2,2-trifluoro-ethoxy)-pyridine-2-carbonitrile], the half-maximal inhibitory concentration (IC50) stood at 3900 pM.
Take `Cc1nc2nonc2c(N)c1Cc1ccc(Cl)cn1` [Example 8, 6-(5-Chloro-pyridin-2-ylmethyl)-5-methyl-[1,2,5]oxadiazolo[3,4-b]pyridin-7-ylamine]: it took 420 pM to reach half-maximal inhibition (IC50).
Molecule `Cc1nc2nonc2c(N)c1Cc1ccc(Br)c(C#N)n1` [Example 71, 6-(7-Amino-5-methyl-[1,2,5]oxadiazolo[3,4-b]pyridin-6-ylmethyl)-3-bromopyridine-2-carbonitrile] had a concentration for half-maximal inhibition (IC50) of 220 pM.
`Cc1nc2nonc2c(N)c1Cc1ccc(C(F)F)cn1` [Example 9, 6-(5-Difluoromethyl-pyridin-2-ylmethyl)-5-methyl-[1,2,5]oxadiazolo[3,4-b]pyridin-7-ylamine]: the IC50 came to 440 pM.
For `Cc1nc2nonc2c(N)c1Cc1ncc(C#N)c(C(F)(F)F)n1` [Example 78, 2-(7-amino-5-methyl-[1,2,5]oxadiazolo[3,4-b]pyridin-6-ylmethyl)-4-(trifluoromethyl)pyrimidine-5-carbonitril], the IC50 turned out to be 360 pM.
In turn, `Cc1nc2nonc2c(N)c1Cc1ccc(Br)c(NCC2(C)CCOC2)n1` (stereo not shown) [Example 126, 6-{5-Bromo-6-[(3-methyl-tetrahydro-furan-3-ylmethyl)-amino]-pyridin-2-ylmethyl}-5-methyl-[1,2,5]oxadiazolo[3,4-b]pyridin-7-ylamine] displayed an IC50 of 170 pM.
`Cc1nc2nonc2c(N)c1Cc1cc(C(F)(F)F)ccn1` [Example 26, 5-Methyl-6-(4-trifluoromethyl-pyridin-2-ylmethyl)-[1,2,5]oxadiazolo[3,4-b]pyridin-7-ylamine] came in with an IC50 of 8800 pM.
Take `Cc1nc2nonc2c(N)c1Cc1ccc(C#N)c(N2CCC(F)(F)C2)n1` [Example 143, 6-(7-Amino-5-methyl-[1,2,5]oxadiazolo[3,4-b]pyridin-6-ylmethyl)-2-(3,3-difluoro-pyrrolidin-1-yl)-nicotinonitrile]: the concentration for half-maximal inhibition (IC50) stood at 46 pM.
The same measure for `Cc1nc2nonc2c(N)c1Cc1cccc(-c2c(C)noc2C)n1` [Example 60, 6-[6-(3,5-Dimethyl-isoxazol-4-yl)-pyridin-2-ylmethyl]-5-methyl-[1,2,5]oxadiazolo[3,4-b]pyridin-7-ylamine]: 480 pM; for `Cc1cccc(Cc2c(C)nc3nonc3c2N)n1` [Example 53, 5-Methyl-6-(6-methyl-pyridin-2-ylmethyl)-[1,2,5]oxadiazolo[3,4-b]pyridin-7-ylamine]: 2600 pM.
For the molecule `CNC(=O)c1cccc(Cc2c(C)nc3nonc3c2N)n1` [Example 54, 6-(7-Amino-5-methyl-[1,2,5]oxadiazolo[3,4-b]pyridin-6-ylmethyl)-pyridine-2-carboxylic acid methylamide], inhibition was half-maximal at 240 pM (IC50).
As to `Cc1nc2nonc2c(N)c1Cc1ccc(C#N)c(N2CCNC(=O)CC2)n1` [Example 141, 6-(7-Amino-5-methyl-[1,2,5]oxadiazolo[3,4-b]pyridin-6-ylmethyl)-2-(5-oxo-[1,4]diazepan-1-yl)-nicotinonitrile], it took 140 pM to reach half-maximal inhibition (IC50).
Molecule `Cc1nc2nonc2c(N)c1Cc1ncc(C#N)c(N)n1` [Example 45, 4-amino-2-(7-amino-5-methyl-[1,2,5]oxadiazolo[3,4-b]pyridin-6-ylmethyl)pyrimidine-5-carbonitrile] registered an IC50 of 1200 pM.
The same measure for `Cc1nc2nonc2c(N)c1Cc1cc(Cl)c(C(F)(F)F)cn1` [Example 20, 6-(4-Chloro-5-trifluoromethyl-pyridin-2-ylmethyl)-5-methyl-[1,2,5]oxadiazolo[3,4-b]pyridin-7-ylamine]: 170 pM.
As to `Cc1nc2nonc2c(N)c1Cc1ccc(C#N)c(OCC(C)(C)O)n1` [Example 105, 6-(7-Amino-5-methyl-[1,2,5]oxadiazolo[3,4-b]pyridin-6-ylmethyl)-2-(2-hydroxy-2-methyl-propoxy)-nicotinonitrile], half-maximal inhibition (IC50) required 120 pM.
`Cc1nc2nonc2c(N)c1Cc1ccc(Br)c(OCCF)n1` [Example 100, 6-[5-Bromo-6-(2-fluoro-ethoxy)-pyridin-2-ylmethyl]-5-methyl-[1,2,5]oxadiazolo[3,4-b]pyridin-7-ylamine] showed an IC50 of 34 pM.
`Cc1nc2nonc2c(N)c1Cc1ccc(C#N)c(=O)[nH]1` [Example 113, 6-(7-Amino-5-methyl-[1,2,5]oxadiazolo[3,4-b]pyridin-6-ylmethyl)-2-oxo-1,2-dihydro-pyridine-3-carbonitrile] yielded an IC50 of 31000 pM.
Consider `Cc1nc2nonc2c(N)c1Cc1ccc(NCCF)c(C#N)n1` [Example 153, 6-(7-Amino-5-methyl-[1,2,5]oxadiazolo[3,4-b]pyridin-6-ylmethyl)-3-(2-fluoro-ethylamino)-pyridine-2-carbonitrile], for which the IC50 is 560 pM.
In turn, `CSc1ccc(Cc2c(C)nc3nonc3c2N)nc1` [Example 44, 5-Methyl-6-(5-methylsulfanyl-pyridin-2-ylmethyl)-[1,2,5]oxadiazolo[3,4-b]pyridin-7-ylamine] had an IC50 of 170 pM.
For `Cc1nc2nonc2c(N)c1Cc1ccc(OC(F)(F)F)c(C#N)n1` [Example 33, 6-(7-Amino-5-methyl-[1,2,5]oxadiazolo[3,4-b]pyridin-6-ylmethyl)-3-trifluoromethoxy-pyridine-2-carbonitrile], it took 300 pM to reach half-maximal inhibition (IC50).
On to `Cc1nc2nonc2c(N)c1Cc1ccc(C#N)c(Cl)n1` [Example 24, 6-(7-Amino-5-methyl-[1,2,5]oxadiazolo[3,4-b]pyridin-6-ylmethyl)-2-chloro-nicotinonitrile], for which the concentration for half-maximal inhibition (IC50) stood at 120 pM.
For `Cc1nc2nonc2c(N)c1Cc1ccc(C#N)c(N2CCOCC2)n1` [Example 136, 6-(7-Amino-5-methyl-[1,2,5]oxadiazolo[3,4-b]pyridin-6-ylmethyl)-2-morpholin-4-yl-nicotinonitrile] the value was 33 pM; for `Cc1nc2nonc2c(N)c1Cc1ccc(Oc2ccnn2C)c(C#N)n1` [Example 117, 6-(7-Amino-5-methyl-[1,2,5]oxadiazolo[3,4-b]pyridin-6-ylmethyl)-3-(2-methyl-2H-pyrazol-3-yloxy)-pyridine-2-carbonitrile], 190 pM; for `Cc1nc2nonc2c(N)c1Cc1ccc([S+](C)[O-])cn1` (stereo not shown) [Example 87, 6-(5-Methanesulfinyl-pyridin-2-ylmethyl)-5-methyl-[1,2,5]oxadiazolo[3,4-b]pyridin-7-ylamine], 9000 pM.
In turn, `Cc1nc2nonc2c(N)c1Cc1ccc(-n2cccn2)c(C#N)n1` [Example 157, 6-(7-Amino-5-methyl-[1,2,5]oxadiazolo[3,4-b]pyridin-6-ylmethyl)-3-pyrazol-1-yl-pyridine-2-carbonitrile] yielded a concentration for half-maximal inhibition (IC50) of 260 pM.
For `Cc1nc2nonc2c(N)c1Cc1ncc(Br)c(C(F)F)n1` [Example 84, 6-[5-bromo-4-(difluoromethyl)pyrimidin-2-yl]methyl-5-methyl-[1,2,5]oxadiazolo[3,4-b]pyridin-7-amine] the value was 210 pM; for `Cc1nc2nonc2c(N)c1Cc1cc(C#N)c(C#N)cn1` [Example 76, 6-(7-amino-5-methyl-[1,2,5]oxadiazolo[3,4-b]pyridin-6-ylmethyl)pyridine-3,4-dicarbonitrile], 14000 pM; for `Cc1nc2nonc2c(N)c1Cc1cccc([S+](C)[O-])n1` (stereo not shown) [Example 85, 6-(6-Methanesulfinyl-pyridin-2-ylmethyl)-5-methyl-[1,2,5]oxadiazolo[3,4-b]pyridin-7-ylamine], 6900 pM.
With `Cc1nc2nonc2c(N)c1Cc1ncc(C#N)c(C2CCOC2)n1` (stereo not shown) [Example 80, 2-(7-amino-5-methyl-[1,2,5]oxadiazolo[3,4-b]pyridin-6-ylmethyl)-4-(oxolan-3-yl)pyrimidine-5-carbonitrile], the IC50 was determined as 3800 pM.
Consider `Cc1nc2nonc2c(N)c1Cc1nccc(C#N)n1` [Example 51, 2-(7-amino-5-methyl-[1,2,5]oxadiazolo[3,4-b]pyridin-6-ylmethyl)pyrimidine-4-carbonitrile], for which the IC50 was 20000 pM.
`Cc1nc2nonc2c(N)c1Cc1cccc(Cl)n1` [Example 3, 6-(6-Chloro-pyridin-2-ylmethyl)-5-methyl-[1,2,5]oxadiazolo[3,4-b]pyridin-7-ylamine] returned an IC50 of 460 pM.
The same measure for `Cc1nc2nonc2c(N)c1Cc1ccc(S(C)(=O)=O)c(O)n1` [Example 159, 6-(7-Amino-5-methyl-[1,2,5]oxadiazolo[3,4-b]pyridin-6-ylmethyl)-3-methanesulfonyl-pyridin-2-ol]: 15000 pM.

Source of the values: patent publication US10308667B2, “Oxadiazolopyridine derivatives for use as ghrelin O-acyl transferase (GOAT) inhibitors” (Boehringer Ingelheim International GmbH, priority 2016, dated 2019).
